{"source": "patent US20030133918A1", "about": "“Methods for ex vivo propagation of somatic stem cells” (priority 2001, published 2003)", "key": {"[1]": {"tested_on": "adherent cells from long-term bone marrow cultures", "experiment": "Soft agar colony formation by adherent cells from long-term bone marrow cultures", "assay_type": "cell-based, mice", "conditions": "adherent cells from cultures with 0.4 to 1.0 mM Xs", "from_the_text": "Because of the difficulties anticipated in cloning Xs-dependent cells from heterogenous long-term bone marrow cultures, we decided to adopt a soft agar culture strategy. It is well known that hematopoietic progenitor cells will form colonies when grown in semi-solid medium (Dexter et al., 1984). […] Instead, it simply reflects their natural ability to divide without anchorage. In many bone marrow cell studies, conditions are selected to induce bone marrow cell differentiation. Methyl-cellulose or soft agar supplemented with lineage-promoting growth factors are widely used experimental systems (Dexter et al., 1984). For ideal SACK, we wished to minimize stimuli for differentiation. Therefore, we used agar developed in routine horse serum-supplemented long-term culture medium, without any additional growth factor source, as the gel medium for our studies. We followed procedures developed for detecting anchorage-independent growth of transformed tumor cells.\nOur plan was to evaluate SACK effects on soft agar colonies derived from fresh bone marrow. Therefore, we wished to relate the morphology of colonies that arose from fresh bone marrow cells to those that arose from LT-CFCs in long-term cultures. […] After 9 weeks of culture, when adherent cells were evaluated after washing and then removal with half-strength trypsin, only type II colonies were detected (frequency=19×10^−5). […]"}, "[2]": {"tested_on": "rat liver epithelial cell strains", "experiment": "Colony formation assay of rat liver epithelial cell strains in Xs-free or Xs-containing medium", "assay_type": "cell-based", "conditions": "for Colony formation efficiency Xs+/Xs− Ratio: 50 μM xanthosine vs Xs-free medium; for Colony formation efficiency, Xs+ (Mean % ± SD; n = 6): 50 μM xanthosine, 14 days, 200 cells per well", "from_the_text": "Three Xs-free (“Xs-F”) cell strains and 8 Xs-derived (“Xs-D”) cell strains were chosen for cell kinetics analysis. Despite the similarities in their derivation course, there is a remarkable difference in the growth properties of Xs-F and Xs-D cell strains (see Table 1). […] This is a highly significance difference (p=0.004). […] The estimated mean increase in colony formation efficiency for Xs-D strains in Xs-containing medium is 11-fold, ranging from a 10% (Xs-D9; not statistically significant) to a 40-fold increase (Xs-D13; p<0.0001). The growth of Xs-F strains was unaffected by Xs even at the higher concentration of 100 μM (data not shown). [table]"}}, "data": [{"molecule": "O=c1[nH]c(=O)c2ncn([C@@H]3O[C@H](CO)[C@@H](O)[C@H]3O)c2[nH]1", "note": "[Xs, xanthosine]", "values": [{"measurement": "More type I colonies than control cultures (average)", "setting": "[1]", "result": 35, "unit": "%"}, {"measurement": "Growth of Xs-F strains", "setting": "[2]; Xs-F strains, even at the higher concentration of 100 μM, data not shown", "result": "unaffected"}, {"measurement": "Colony formation efficiency Xs+/Xs− Ratio", "setting": "[2]; cell strain Xs-D4", "result": 1.5}, {"measurement": "Colony formation efficiency, Xs+ (Mean % ± SD; n = 6)", "setting": "[2]; cell strain Xs-D4", "result": "8.0 ± 1.1", "unit": "%"}, {"measurement": "Colony formation efficiency Xs+/Xs− Ratio", "setting": "[2]; cell strain Xs-D6", "result": 1.4}, {"measurement": "Colony formation efficiency, Xs+ (Mean % ± SD; n = 6)", "setting": "[2]; cell strain Xs-D6", "result": "5.3 ± 1.8", "unit": "%"}, {"measurement": "Colony formation efficiency Xs+/Xs− Ratio", "setting": "[2]; cell strain Xs-D7", "result": "≧22"}, {"measurement": "Colony formation efficiency, Xs+ (Mean % ± SD; n = 6)", "setting": "[2]; cell strain Xs-D7", "result": "6.7 ± 2.2", "unit": "%"}, {"measurement": "Colony formation efficiency Xs+/Xs− Ratio", "setting": "[2]; cell strain Xs-D8", "result": 17}, {"measurement": "Colony formation efficiency, Xs+ (Mean % ± SD; n = 6)", "setting": "[2]; cell strain Xs-D8", "result": "22 ± 3.6", "unit": "%"}, {"measurement": "Colony formation efficiency Xs+/Xs− Ratio", "setting": "[2]; cell strain Xs-D9", "result": 1.1}, {"measurement": "Colony formation efficiency, Xs+ (Mean % ± SD; n = 6)", "setting": "[2]; cell strain Xs-D9", "result": "11 ± 2.6", "unit": "%"}, {"measurement": "Colony formation efficiency Xs+/Xs− Ratio", "setting": "[2]; cell strain Xs-D13", "result": 40}, {"measurement": "Colony formation efficiency, Xs+ (Mean % ± SD; n = 6)", "setting": "[2]; cell strain Xs-D13", "result": "12 ± 2.7", "unit": "%"}, {"measurement": "Colony formation efficiency Xs+/Xs− Ratio", "setting": "[2]; cell strain Xs-D14", "result": 1.3}, {"measurement": "Colony formation efficiency, Xs+ (Mean % ± SD; n = 6)", "setting": "[2]; cell strain Xs-D14", "result": "0.4 ± 0.67", "unit": "%"}, {"measurement": "Colony formation efficiency Xs+/Xs− Ratio", "setting": "[2]; cell strain Xs-D15", "result": 5.3}, {"measurement": "Colony formation efficiency, Xs+ (Mean % ± SD; n = 6)", "setting": "[2]; cell strain Xs-D15", "result": "10 ± 1.6", "unit": "%"}, {"measurement": "Colony formation efficiency Xs+/Xs− Ratio", "setting": "[2]; cell strain Xs-F1", "result": 0.9}, {"measurement": "Colony formation efficiency, Xs+ (Mean % ± SD; n = 6)", "setting": "[2]; cell strain Xs-F1", "result": "9.8 ± 2.2", "unit": "%"}, {"measurement": "Colony formation efficiency Xs+/Xs− Ratio", "setting": "[2]; cell strain Xs-F2", "result": 1.0}, {"measurement": "Colony formation efficiency, Xs+ (Mean % ± SD; n = 6)", "setting": "[2]; cell strain Xs-F2", "result": "29 ± 3.7", "unit": "%"}, {"measurement": "Colony formation efficiency Xs+/Xs− Ratio", "setting": "[2]; cell strain Xs-F3", "result": 1.0}, {"measurement": "Colony formation efficiency, Xs+ (Mean % ± SD; n = 6)", "setting": "[2]; cell strain Xs-F3", "result": "18 ± 3.7", "unit": "%"}, {"measurement": "Estimated mean increase in colony formation efficiency for Xs-D strains in Xs-containing medium", "setting": "[2]; mean of 8 Xs-D strains, Xs-containing vs Xs-free medium", "result": 11, "unit": "fold"}, {"measurement": "Increase in colony formation efficiency in Xs-containing medium", "setting": "[2]; strain Xs-D9, not statistically significant", "result": 10, "unit": "%"}, {"measurement": "Increase in colony formation efficiency in Xs-containing medium", "setting": "[2]; strain Xs-D13, p<0.0001", "result": 40, "unit": "fold"}]}]}
